# Data from patent US20080113900A1, “Pharmaceutical compositions and therapeutic applications for the use of a synthetic vitamin B12 derivative, glutathionylcobalamin” (priority 2006, published 2008).
# Where “and” joins values, the source holds several entries; their conditions need not be identical. Equal entries are not always repeated.
# Key:
# [1] = tested on: SK-HEP-1 cells; test: Effect of high concentrations of NACCbl and GSCbl on SK-HEP-1 cells (MTS assay, 24 hours); assay type: cell-based, human; conditions: for Cell viability by MTS assay (FIG. 13): SK-HEP-1, 3 replicates
# [2] = tested on: SK-HEP-1 cells; test: Protection of endothelial cells from H2O2-induced cell death (MTS assay); assay type: cell-based, human; parameters: key to Cell viability (MTS assay): cell viability as % survival; conditions: for Cell viability (MTS assay): SK-HEP-1, n = 6 replicates
# [3] = tested on: SK-HEP-1 cells; test: Protection from homocysteine-induced apoptosis, Caspase-3 activity (apoptosis assay); assay type: cell-based, human; conditions: 30 μM two hours, then 30 μM homocysteine two hours
# Protocol: Caspase 3 is activated when cells undergo apoptosis. Caspase-3 assay is a standard for apoptosis assay. Homocysteine is a known inducer of apoptosis. Cells were cultured in 96-well plates for 24 hours and then treated with reagents under test conditions. Cytotoxic agents, H2O2 and etoposide were added to negative control wells. The assay was performed according to the manufacturer's protocol, as follows: Cells were re-suspended in 100 μl of clear media and 50 μl of Caspase-3 substrate solution was immediately added to each test well. […] Cell viability was determined by MTS® assay. […] Cell viability was determined by MTS® assay.
# [4] = tested on: SK-HEP-1 cells; test: NACCbl protection from homocysteine with inhibition of Hsp32/Hsp70 by Sn(IX) protoporphyrin, quercitin or siRNA (MTS assay)
# [5] = tested on: U937 (monocytes); test: Survival of U937 cells at variable concentration of Hcy; assay type: cell-based; conditions: NACCbl 30 μM, NAC 75 μM, CNCbl 15 μM, folate 30 μM
# Protocol: (§1) Additional cell studies were conducted using Jurkat (T-cells) and U937 (monocyte) cell lines. These experiments confirmed that other cell types are killed by homocysteine, although these cell lines are not as sensitive as the SK-HEP-1 cell line discussed in the experiments above and are thus more resistant to homocysteine. Cells were exposed to NACCbl 30 μM, NAC 75 μM, CNCbl 15 μM, and folate 30 μM. […] In these Figures, the monocytes are N=6 and concentrations are as follows: NACCbl 30 μM, NAC 75 μM, CNCbl 15 μM, Folate 30 μM
# [6] = tested on: SK-HEP-1 cells; test: Protection of endothelial cells from H2O2-induced cell death (MTS assay); assay type: cell-based, human; parameters: key to Cell viability (MTS assay): cell viability as % survival; conditions: for Cell viability (MTS assay): SK-HEP-1, n = 6 replicates; remark: listed apart in the source
# Protocol: The effect of increasing concentrations of NACCbl and GSCbl to protect endothelial cells from the effect of H2O2 was assessed. […] Cell viability was determined by MTS® assay. […] FIG. 3 illustrates that NACCbl and GSCbl protect endothelial cells from the effect of H2O2. […] Cell viability was determined by MTS® assay. […] There was no difference between the protection afforded by NACCbl and that by GSCbl. Both required 100 μM to achieve >80% survival.
# [7] = tested on: Hsp32; test: Hsp32 gene expression (RT-PCR, densitometry); assay type: cell-based, human; conditions: SK-HEP-1; Sn (IX) protoporphyrin 25 μM; Quercitin 15 μM
# [8] = tested on: Jurkat (T-cells); test: Survival of Jurkat cells at variable concentration of Hcy; assay type: cell-based; conditions: NACCbl 30 μM, NAC 75 μM, CNCbl 15 μM, folate 30 μM
# Protocol: as §1
# [9] = Decomposition in PBS at 37° C. monitored by UV/Vis spectrophotometry; assay type: physicochemical
# Protocol: The decomposition of GSCbl, NACCbl, and HcyCbl in PBS at 37° C. was monitored by UV/Vis spectrophotometry.
# [10] = 2 hours, then 25 μM H2O2 24 hours
compound,measurement,setting,value
"CC(=O)NC(C[S-])C(=O)O.CC1=C2N=C(C=C3N=C(C(C)=C4[N-]C(C(CC(N)=O)C4(C)CCC(=O)NCC(C)OP(=O)([O-])OC4C(CO)OC(n5cnc6cc(C)c(C)cc65)C4O)C4(C)N=C1C(CCC(N)=O)C4(C)CC(N)=O)C(CCC(N)=O)C3(C)C)C(CCC(N)=O)C2(C)CC(N)=O.[Co+3] [NACCbl, N-acetyl-L-cysteinylcobalamin]",Survival,"[1]; SK-HEP-1, 10 mM, 24 hours",over 60%
same,Cell viability by MTS assay (FIG. 13),"[1]; compound conc. 0.61, 24 hours",2.572 and 2.498 and 2.473
same,Cell viability by MTS assay (FIG. 13),"[1]; compound conc. 1.22, 24 hours",2.546 and 2.524 and 2.538
same,Cell viability by MTS assay (FIG. 13),"[1]; compound conc. 2.441, 24 hours",2.592 and 2.536 and 2.499
same,Cell viability by MTS assay (FIG. 13),"[1]; compound conc. 4.882, 24 hours",2.532 and 2.463 and 2.457
same,Cell viability by MTS assay (FIG. 13),"[1]; compound conc. 9.765, 24 hours",2.505 and 2.474 and 2.514
same,Cell viability by MTS assay (FIG. 13),"[1]; compound conc. 19.531, 24 hours",2.485 and 2.466 and 2.502
same,Cell viability by MTS assay (FIG. 13),"[1]; compound conc. 39.062, 24 hours",2.503 and 2.474 and 2.453
same,Cell viability by MTS assay (FIG. 13),"[1]; compound conc. 78.125, 24 hours",2.521 and 2.488 and 2.475
same,Cell viability by MTS assay (FIG. 13),"[1]; compound conc. 156.25, 24 hours",2.484 and 2.42 and 2.492
same,Cell viability by MTS assay (FIG. 13),"[1]; compound conc. 312.5, 24 hours",2.409 and 2.301 and 2.437
same,Cell viability by MTS assay (FIG. 13),"[1]; compound conc. 625, 24 hours",2.358 and 2.242 and 2.347
same,Cell viability by MTS assay (FIG. 13),"[1]; compound conc. 1250, 24 hours",2.2 and 2.055 and 2.3
same,Cell viability by MTS assay (FIG. 13),"[1]; compound conc. 2500, 24 hours",1.989 and 1.891 and 2.085
same,Cell viability by MTS assay (FIG. 13),"[1]; compound conc. 5000, 24 hours",2.081 and 2.003 and 2.004
same,Cell viability by MTS assay (FIG. 13),"[1]; compound conc. 10000, 24 hours",1.908 and 1.82 and 1.732
same,Survival,"[2]; NACCbl 30 μM, above 25 μM H2O2",below 60%
same,Cell viability (MTS assay),"[2]; compound 30 μM two hours, then H2O2 0 μM",102.9844 and 100.8053 and 103.2212 and 107.9583 and 101.8948 and 98.44
same,Cell viability (MTS assay),"[2]; compound 30 μM two hours, then H2O2 0.781 μM a further two hours",93.46 and 102.7949 and 99.24 and 101.3738 and 103.2686 and 95.45
same,Cell viability (MTS assay),"[2]; compound 30 μM two hours, then H2O2 1.56 μM a further two hours",98.53 and 91.38 and 98.72 and 100.1421 and 89.77 and 96.12
same,Cell viability (MTS assay),"[2]; compound 30 μM two hours, then H2O2 3.125 μM a further two hours",88.2 and 93.18 and 92.89 and 99.76 and 92.42 and 91.8
same,Cell viability (MTS assay),"[2]; compound 30 μM two hours, then H2O2 6.25 μM a further two hours",88.2 and 87.59 and 82.14 and 81.57 and 78.07 and 77.12
same,Cell viability (MTS assay),"[2]; compound 30 μM two hours, then H2O2 12.5 μM a further two hours",77.17 and 76.98 and 76.6 and 67.12 and 77.6883 and 74.14
same,Cell viability (MTS assay),"[2]; compound 30 μM two hours, then H2O2 25 μM a further two hours",67.12 and 66.75 and 61.87 and 56.18 and 55.3766 and 55.95
same,Cell viability (MTS assay),"[2]; compound 30 μM two hours, then H2O2 50 μM a further two hours",50.21 and 48.27 and 44.955 and 45.71 and 48.18 and 44.58
same,Cell viability (MTS assay),"[2]; compound 30 μM two hours, then H2O2 100 μM a further two hours",29.99 and 23.97 and 19.56 and 18.901 and 17.53 and 20.89
same,Cell viability (MTS assay),"[2]; compound concentration 1.562, 2 hours, then 25 μM H2O2 24 hours",4.677 and 1.845 and 5.27 and 1.647 and 4.348 and 5.599
same,Cell viability (MTS assay),"[2]; compound concentration 3.125, 2 hours, then 25 μM H2O2 24 hours",26.8116 and 19.5 and 35.84 and 30.5 and 35.24 and 33
same,Protection against apoptosis induced by homocysteine,[3],total protection
same,"Cell viability by MTS assay (FIG. 11), replicates 1-6","[4]; SK-HEP-1, NACCbl 30 μM two hours with or without Sn(IX)PP/quercetin, then Hcy conc. 200 two hours, label Hcy = Hcy alone",1.378 and 1.167 and 1.33 and 1.456 and 1.491 and 1.537
same,Reduction of the protection by NACCbl on inhibition of Hsp32,"[4]; Sn(IX) protoporphyrin or siRNA, p<0.001",10-20%
same,"Cell viability by MTS assay (FIG. 11), replicates 1-6","[4]; as E45, Hcy conc. 0",2.885 and 2.698 and 2.821 and 2.771 and 2.691 and 2.7
same,"Cell viability by MTS assay (FIG. 11), replicates 1-6","[4]; as E45, Hcy conc. 1.78",2.647 and 2.551 and 2.789 and 2.89 and 2.549 and 2.611
same,"Cell viability by MTS assay (FIG. 11), replicates 1-6","[4]; as E45, Hcy conc. 3.125",2.453 and 2.338 and 2.36 and 2.317 and 2.418 and 2.535
same,"Cell viability by MTS assay (FIG. 11), replicates 1-6","[4]; as E45, Hcy conc. 6.25",2.41 and 2.4 and 2.322 and 2.201 and 2.115 and 2.187
same,"Cell viability by MTS assay (FIG. 11), replicates 1-6","[4]; as E45, Hcy conc. 12.5",2.21 and 2.11 and 2.045 and 2.065 and 2.101 and 2.324
same,"Cell viability by MTS assay (FIG. 11), replicates 1-6","[4]; as E45, Hcy conc. 25",2.1 and 2.19 and 1.879 and 1.937 and 1.779 and 1.837
same,"Cell viability by MTS assay (FIG. 11), replicates 1-6","[4]; as E45, Hcy conc. 50",1.678 and 1.832 and 1.881 and 1.73 and 1.74 and 1.855
same,"Cell viability by MTS assay (FIG. 11), replicates 1-6","[4]; as E45, Hcy conc. 100",1.678 and 1.592 and 1.694 and 1.773 and 1.732 and 1.639
same,Protection by NACCbl on inhibition of both Hsp32 and Hsp70 together,[4]; chemically and directly,totally removed protection
same,Reduction of the protection by NACCbl on inhibition of Hsp70,"[4]; quercitin or siRNA, p<0.001",20-40%
same,Protection of U937 cells from death,[5],"more effective at protecting these cells from death than NAC, CN Cbl or folate"
same,Difference between protection by NACCbl and by GSCbl,[6]; 25 μM H2O2 24 hours,no difference
same,Concentration required to achieve >80% survival,[6]; [10],100 µM
same,Preincubation concentration that protected cells from H2O2-induced cell death,[6]; [10],≥ 2.0 µM
same,Cell viability (MTS assay),"[6]; compound 30 μM two hours, then H2O2 200 μM a further two hours",5.2108 and 7.153 and 1.99 and 0.6632
same,Cell viability (MTS assay),"[6]; compound concentration 6.25, 2 hours, then 25 μM H2O2 24 hours",42.8195 and 42.09 and 39.39 and 30.9 and 28 and 38.4058
same,Cell viability (MTS assay),"[6]; compound concentration 12.5, 2 hours, then 25 μM H2O2 24 hours",45.26 and 41.7 and 44.99 and 45.5863 and 42.23 and 47.36
same,Cell viability (MTS assay),"[6]; compound concentration 25, 2 hours, then 25 μM H2O2 24 hours",46.9 and 46.77 and 45.26 and 42.69 and 45.72 and 48.16
same,Cell viability (MTS assay),"[6]; compound concentration 100, 2 hours, then 25 μM H2O2 24 hours",61.5942 and 56.59 and 70.22 and 74.37 and 64.23 and 61.79
same,Cell viability (MTS assay),"[6]; compound concentration 200, 2 hours, then 25 μM H2O2 24 hours",100.7246 and 99.7365 and 101.8445 and 107.3123 and 92.69 and 97.56
same,Hsp32 gene expression,[7],induced
same,Protection of Jurkat cells from death,[8],"more effective at protecting these cells from death than NAC, CN Cbl or folate"
same,t1/2,[9],No decomposition within 20 hours
